Where two headings read alike, the source gives them in different places.
Assays:
[1] = parameters: method as in earlier work; settings: preclinical data; cited from earlier work
[2] = parameters: method as in PMID 24408395; settings: fixed in base and final model and bootstrap; cited from earlier work
[3] = Population pharmacokinetic model of dabrafenib/hydroxy-dabrafenib (NONMEM) from plasma concentrations; assay type: in vivo, human (patients); settings: for Vd/F: both sexes, human, plasma, oral, 150 mg twice daily, read-out: V2/F, apparent central volume of distribution of DAB
Description: Seventy-three outpatients treated with DAB were enrolled from July 2015 to June 2017 in this observational multicentric study including three hospitals of the Assistance Publique—Hôpitaux de Paris (Cochin, Henri Mondor, and Avicenne). To be eligible, patients needed to meet the following criteria: a minimal age of 18 years, metastatic BRAF^V600-mutated solid tumors, treatment with DAB or CombiDT with at least one available DAB concentration measurement.
DAB, dabrafenib-d9 (internal standard, IS), and TRA were purchased from LGC Standards (Molsheim, France). A custom synthesis was developed by Shanghai Medicilon (Shanghai, China) for OHD. The plasma concentrations were assayed using a validated high-performance liquid chromatography-tandem mass spectrometry (HPLC-MS/MS) (ATSQ Quantum Ultra®mass spectrometer, ThermoFisher, Les Ulis, France). Chromatographic separation was performed on Accucore® C18 (2.1 × 50 mm; 2.6 µm) analytical column (ThermoFisher Scientific, Les Ulis, France) associated with a guard column packed with the same bonded phase. Two hundred microliters (µL) aliquot of plasma (calibration standard, internal quality control or patient sample) was mixed with 20 µL of IS solution. Then 600 µL acetonitrile with 1% (v/v) formic acid was added. Samples were mixed and centrifuged, and the supernatant was evaporated and recovered with 200 µL of mobile phase: water/methanol (70:30%, v/v) with formic acid (0.1% v/v). Ten microliters of this mixture were injected into the HPLC-MS/MS system. The calibration standards ranged from 10 to 2000 ng/mL for DAB and OHD and from 5 to 50 ng/mL for TRA.
Blood samples were collected in heparinized tubes during the treatment course, and the exact sample time was recorded. Plasma was separated by centrifugation (3000 rpm, 5 min), and stored at −20 °C until analysis.
The non-linear mixed effects modeling program NONMEM v7.4.1 [34] with the Perl-Speaks NONMEM (PsN) Toolkit v4.8.0 [35] was used to build DAB/OHD and TRA models. Pirana v2.9.2 was used to assist in model development. […] Molar units were used for DAB/OHD analyses. Plasma samples with concentrations below the lower limit of quantification of the assay, non-reliable time information about blood sampling, or without dose information were excluded from the analysis.
A stepwise strategy was used to identify the base models that best fitted DAB/OHD and TRA pharmacokinetic data. Different structural models such as one or two compartments, with linear absorption with or without lag time, were compared. DAB and OHD were modeled simultaneously testing multi-compartment models for both compounds. We hypothesized that DAB was cleared by complete oxidation to OHD, since it is not eliminated as unchanged molecule in urine and accounts for less than 22% in feces. Moreover, the first-order absorption rate constant (ka) of DAB was fixed to 1.8 h^−1 according to a previously published value to allow an adequate estimate of all pharmacokinetic parameters. Since DAB and TRA are administered orally, the pharmacokinetic parameters represent apparent values. Exponential errors following a log-normal distribution were assumed for the description of IIV of all the pharmacokinetic parameters. Inter-occasion variability (IOV) was tested in both DAB/OHD and TRA models to assess differences in individual parameters across study occasions. Additive, proportional, and mixed error models were compared to depict the residual unexplained variability (RUV) for both drugs and metabolite. The correlation between DAB and OHD data was tested using the L2 item in NONMEM. […]

[4] = cited from earlier work
[5] = test system: BRAF^V600-mutated metastatic melanoma; assay: Survival (PFS, OS) and Cox exposure-survival analysis under CombiDT; assay type: in vivo, human (patients)
Method: (§1) Pharmacokinetic/pharmacodynamic analysis was conducted in BRAF^V600-mutated MM patients concomitantly treated with CombiDT. Regarding safety, the onset of DLT was considered as the clinical endpoint. A DLT was defined as any toxicity leading to dose reduction or temporary or permanent discontinuation of treatment. Regarding survival, the primary end point was progression free survival (PFS), the time from DAB and TRA treatment initiation to documented progression event (either clinical or radiological progression) or death from any cause. The secondary end-point was overall survival (OS), defined as the time from DAB and TRA treatment initiation to death from any cause. Radiographic evidence of progression was defined according to modified Response Evaluation Criteria in Solid Tumor (RECIST) v1.1 [41].
Multivariate Cox models according to a stepwise procedure were tested including all variables which were significant at 5% level in the univariate analyses.

[6] = test system: BRAF^V600-mutated MM patients; assay: Safety: adverse events and dose-limiting toxicities (DLT) under CombiDT
Method: Patients initiated DAB at the recommended daily dose of 150 mg twice daily. In patients treated with CombiDT, TRA was started at 2 mg once daily. Reduced starting doses were allowed at physician discretion based on comorbidities and patients’ general condition. All AE were graded using the National Cancer Institute Common Toxicity Criteria v4.0. DAB treatment was continued until disease progression, unacceptable toxicity, or unfitness to receive it.

[7] = Model-estimated systemic exposure (AUC) in BRAF^V600-mutated MM patients treated with CombiDT; settings: for AUC: human, plasma, oral
Method: as §1
Systemic exposures to DAB, OHD, and TRA (AUCDAB, AUCOHD, and AUCTRA, respectively) were calculated with classic equations, composite DAB and OHD AUC (AUCDAB+OHD) as previously explained and AUCOHD/DAB as the ratio of AUCOHD over AUCDAB. Univariate Fisher and Wilcoxon models were performed to identify which parameters could contribute to the onset of DLT. The following variables were tested: sex, age at treatment initiation, BMI, Eastern Cooperative Oncology Group Performance Status (ECOG PS: grade 0-1 vs ≥2), lactate dehydrogenase (LDH) level (<1.5N vs. ≥1.5N), AUCDAB, AUDOHD, AUCDAB+OHD, and AUCTRA.
Multivariate Cox models according to a stepwise procedure were tested including all variables which were significant at 5% level in the univariate analyses. All the pharmacokinetic/pharmacodynamic analyses were performed using R program v3.6.1 with RStudio v1.1.383 (http://www.r-project.org).

[8] = bootstrap median (n = 500 samples)
[9] = reference models built upon clinical trial data

In the case of `CC(C)(C)c1nc(-c2cccc(NS(=O)(=O)c3c(F)cccc3F)c2F)c(-c2ccnc(N)n2)s1` [DAB, Dabrafenib], the “passage of the intact blood brain barrier” value [1] is listed as “may cross intact blood brain barrier”, the “ka, first-order absorption rate constant” value [2] is listed as 1.8 fixed 1/h and the difference in pharmacokinetics ([3]; DAB monotherapy vs. combiDT (ΔOFV = −2.9, p > 0.05)) is listed as “did not differ”. For the same molecule, the “IIV CL/F, interindividual variability (coefficient of variation)” value (“IIV CL/F, interindividual variability” below) ([3]; base DAB/OHD model) was 21.9%, the “IIV V2/F, interindividual variability (coefficient of variation)” value (shortened to “IIV V2/F, interindividual variability”) ([3]; base DAB/OHD model) was 43.0% and the “IOV, inter-occasion variability on CL/F (coefficient of variation)” value (“IOV, inter-occasion variability on CL/F” for short) ([3]; base DAB/OHD model) was 17.2%. The “RUV of DAB, residual unexplained variability (proportional)” value ([3]; base DAB/OHD model) was 49.2%, the “Tlag, lag time” value ([3]; base DAB/OHD model) was 0.50 h and the “CL/F, apparent clearance of DAB” value ([3]; base DAB/OHD model, n = 73, steady state) was 17.7 L/h. The “CL/F, apparent clearance of DAB” value [3, 8] was 19.2 L/h, the “IIV CL/F, interindividual variability” value [3, 8] was 14.4% and the “IIV V2/F, interindividual variability” value [3, 8] was 69.4%. The “IOV, inter-occasion variability on CL/F” value [3, 8] was 17.0%, the “RUV of DAB, residual unexplained variability (proportional)” value [3, 8] was 48.2% and the “Tlag, lag time” value [3, 8] was 0.499 h. The Vd/F ([3]; base DAB/OHD model) was 39.5 L, the Vd/F [3, 8] was 38.3 L and the Vd/F ([3]; final DAB/OHD model) was 39.1 L. For the same molecule, the “reduction of CL/F” value ([3]; comparing 20-year-old to 90-year-old patients) was 55%, the difference in pharmacokinetics ([3]; concomitant proton-pump inhibitor (PPI) intake (ΔOFV = −3.5, p > 0.05)) was “did not differ” and the “CL/F, apparent clearance of DAB” value ([3]; final DAB/OHD model) was 19.3 L/h. The “IIV CL/F, interindividual variability” value ([3]; final DAB/OHD model) was 16.0%, the “IIV V2/F, interindividual variability” value ([3]; final DAB/OHD model) was 50.8% and the “IOV, inter-occasion variability on CL/F” value ([3]; final DAB/OHD model) was 17.4%. For the same molecule, the “RUV of DAB, residual unexplained variability (proportional)” value ([3]; final DAB/OHD model) was 48.7%, the “Tlag, lag time” value ([3]; final DAB/OHD model) was 0.499 h and the “base model variance of clearance explained by covariates (sex, age)” value ([3]; in vivo) was 47%. The “inter-occasion variability (IOV) on CL/F” value ([3]; model building) was 17%, the “reduction of CL/F” value ([3]; women vs. men) was 17% and the “unchanged molecule in feces” value [4] was “less than 22%”. For the same molecule, the “first-order absorption rate constant (ka)” value ([4]; previously published value, fixed in the model) was 1.8 h⁻¹, the CL/F [4, 9] was 17.0 L/h and the Q/F [4, 9] was 3.30 L/h. For the same molecule, the lag time [4, 9] was 0.482 h, the “patients who discontinued DAB treatment because of cerebral progression” value ([5]; present cohort) was 72% and the “Risk of Death, HR (CI95%) for AUCM3” value ([5]; univariate Cox model, n = 30) was 1.02 (0.75–1.39). The “Risk of Progression, HR (CI95%) for AUCM3” value ([5]; univariate Cox model, n = 30) was 1.04 (0.82–1.32), the “patients in whom the drug dose was reduced” value ([6]; 52 MM patients) was 15% and the “patients in whom the drug was discontinued permanently” value ([6]; 52 MM patients) was 8%. For the same molecule, the “patients who experienced a drug-related DLT” value ([6]; 52 MM patients) was 23%, the “median time to onset of drug-related DLT” value ([6]; human, in vivo) was 110 days and the AUC ([7]; AUC, median (range), patients with DAB-related DLT (n = 12), last AUC before onset of DLT) was 9620 ng·h/mL. For the same molecule, the AUC ([7]; AUC, median (range), patients without DAB-related DLT (n = 40), average AUC over treatment course) was 7480 ng·h/mL, the AUC ([7]; mean AUCDAB, after DAB dose reduction, n = 8) was 5040 ng·h/mL and the AUC ([7]; mean AUCDAB, before DAB dose reduction, n = 8) was 9010 ng·h/mL. For the same molecule, the AUC ([7]; median AUCM3 (mean AUC during the first three months of treatment), 30 MM patients of the exposure-survival analysis) was 7720 ng·h/mL and the “decrease in mean AUCDAB after DAB dose reduction” value ([7]; n = 8) was 1.8 fold.

Source: article PMC7226106, “Population Pharmacokinetics/Pharmacodynamics of Dabrafenib Plus Trametinib in Patients with BRAF-Mutated Metastatic Melanoma” (Cancers, 2020)
